This data set addresses T1, SFRP-1 (Homo sapiens, UniProt Q8N474).
T1 sequence (Q8N474 32-314): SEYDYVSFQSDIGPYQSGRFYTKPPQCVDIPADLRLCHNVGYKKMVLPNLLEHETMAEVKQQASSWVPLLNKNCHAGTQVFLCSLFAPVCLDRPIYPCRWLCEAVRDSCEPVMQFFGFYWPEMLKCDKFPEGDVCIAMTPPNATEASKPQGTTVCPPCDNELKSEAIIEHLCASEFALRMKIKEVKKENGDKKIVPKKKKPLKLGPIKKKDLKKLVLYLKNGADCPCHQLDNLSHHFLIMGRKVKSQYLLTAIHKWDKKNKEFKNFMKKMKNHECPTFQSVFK
Put plainly: Cell-based assay for in vitro measurement of SFRP-1/SARP2 antagonist activity (U2OS cells co-transfected with 16x TCF-tk-Luciferase reporter, Wnt and hSFRP-1).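 On all read-outs here: U2OS cells co-transfected with a TCF-tk luciferase reporter, a Wnt vector, hSFRP-1 or empty vector and CMV-βgal, luciferase luminescence read in cell lysates alongside βgal activity.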 As to conditions: for fold induction at 15 µM / fold induction at 60 µM: U2OS. Background: A reporter such as luciferase makes a cellular process visible.

Where [1] appears, read: read-out: Fold Induction with SFRP-1, Conc 15 μM, with SFRP-1, fold induction over SFRP-1 control, single dose.
The mark [2] stands for this setting: read-out: Fold Induction without SFRP-1, Conc 15 μM, without SFRP-1, single dose.
[3] abbreviates: Conc 15 μM, with SFRP-1, fold induction over SFRP-1 control, single dose.
Where [4] appears, read: Conc 15 μM, without SFRP-1, single dose.

Read-outs that look alike come from different tables or passages of the source.

As for `Cc1cc(C)c(S(=O)(=O)c2ccccc2)cc1S(=O)(=O)NCC(O)c1ccccc1` (stereo not shown) [Example 389, N-(2-hydroxy-2-phenylethyl)-2,4-dimethyl-5-(phenylsulfonyl)benzenesulfonamide], the fold induction at 15 µM reads like this: under setting [1], 1.5; under setting [2], 1.1.
For `Cc1ccc(S(=O)(=O)c2ccccc2)cc1S(=O)(=O)NC(C)C(O)c1ccccc1` (stereo not drawn) [Example 390, trans-N-(2-hydroxy-1-methyl-2-phenylethyl)-2-methyl-5-(phenylsulfonyl)benzenesulfonamide], the “Fold Induction with SFRP-1” value under setting [3] was 2.2 fold. The “Fold Induction without SFRP-1” value under setting [4] came to 1.1 fold.
Turning to `Cc1ccc(S(=O)(=O)c2ccc(F)cc2)cc1S(=O)(=O)NC(C)C(O)c1ccccc1` (stereo not drawn) [Example 391, 5-[(4-fluorophenyl)sulfonyl]-N-[trans-2-hydroxy-1-methyl-2-phenylethyl]-2-methylbenzenesulfonamide], the “Fold Induction with SFRP-1” value under setting [3] is 1.8 fold. Besides, under setting [4], the “Fold Induction without SFRP-1” value is given as 1.1 fold.
With `Cc1cc(C)c(S(=O)(=O)c2ccccc2)cc1S(=O)(=O)NC(C)C(O)c1ccccc1` (stereo not drawn) [Example 393, N-[(trans)-2-hydroxy-1-methyl-2-phenylethyl]-2,4-dimethyl-5-(phenylsulfonyl)benzenesulfonamide], the “Fold Induction with SFRP-1” value (Conc 7.5 μM, with SFRP-1, fold induction over SFRP-1 control, single dose) is 1.2 fold. For the same molecule, the “Fold Induction without SFRP-1” value (Conc 7.5 μM, without SFRP-1, single dose) is given as 1 fold.
For the molecule `CCCNS(=O)(=O)c1cc(S(=O)(=O)c2ccccc2)ccc1C` [Example 394, 2-methyl-5-(phenylsulfonyl)-N-propylbenzenesulfonamide], the fold induction at 15 µM came to 1.5 under setting [1] and 1 under setting [2].
In the same order, the values of `Cc1ccc(S(=O)(=O)c2ccccc2)cc1S(=O)(=O)NC(C)(C)C` [Example 395, N-(tert-butyl)-2-methyl-5-(phenylsulfonyl)benzenesulfonamide] are 1.2 and 1.
For `Cc1ccc(S(=O)(=O)c2ccccc2)cc1S(=O)(=O)NCC(C)(C)C` [Example 396, N-(2,2-dimethylpropyl)-2-methyl-5-(phenylsulfonyl)benzenesulfonamide], in that order: 1.4 and 1.
In the same order, the values of `CCC(CC)NS(=O)(=O)c1cc(S(=O)(=O)c2ccccc2)ccc1C` [Example 397, N-(1-ethylpropyl)-2-methyl-5-(phenylsulfonyl)benzenesulfonamide] are 1.2 and 1.1.
For `Cc1ccc(S(=O)(=O)c2ccccc2)cc1S(=O)(=O)NC1CCCCC1` [Example 400, N-cyclohexyl-2-methyl-5-(phenylsulfonyl)benzenesulfonamide], the fold induction at 15 µM runs as follows: under setting [1], 1.8; under setting [2], 1.2.
For `Cc1ccc(S(=O)(=O)c2ccccc2)cc1S(=O)(=O)NCC(F)(F)F` [Example 401, 2-methyl-5-(phenylsulfonyl)-N-(2,2,2-trifluoroethyl)benzenesulfonamide], in that order: 1.6 and 1.1.
As for `CC(=O)c1ccc(S(=O)(=O)c2ccc(C)c(S(=O)(=O)NCCc3ccccn3)c2)cc1` [Example 403, 5-[(4-acetylphenyl)sulfonyl]-2-methyl-N-(2-pyridin-2-ylethyl)benzenesulfonamide], the fold induction at 15 µM is, setting by setting: under setting [1], 2.5; under setting [2], 1.1.
For `Cc1ccc(S(=O)(=O)c2ccccc2)cc1S(=O)(=O)NC(C)(C)CO` [Example 404, N-(2-hydroxy-1,1-dimethylethyl)-2-methyl-5-(phenylsulfonyl)benzenesulfonamide], in that order: 1.2 and 1.1.
For `Cc1ccc(S(=O)(=O)c2ccc(C(C)(C)O)cc2)cc1S(=O)(=O)NCCc1ccccn1` [Example 405, 5-{[4-(1-hydroxy-1-methylethyl)phenyl]sulfonyl}-2-methyl-N-(2-pyridin-2-ylethyl)benzenesulfonamide], in that order: 2.1 and 1.1.
As for `Cc1ccc(S(=O)(=O)c2ccc(C(C)(O)C3CCCCC3)cc2)cc1S(=O)(=O)NCCc1ccccn1` (stereo not shown) [Example 406, 5-{[4-(1-cyclohexyl-1-hydroxyethyl)phenyl]sulfonyl}-2-methyl-N-(2-pyridin-2-ylethyl)benzenesulfonamid], the fold induction at 60 µM amounted to 1.2 (read-out: Fold Induction with SFRP-1, Conc 60 μM, with SFRP-1, fold induction over SFRP-1 control, single dose) and 0.9 (read-out: Fold Induction without SFRP-1, Conc 60 μM, without SFRP-1, single dose).
Regarding `Cc1ccc(S(=O)(=O)c2ccc(C(C)(O)c3ccccc3)cc2)cc1S(=O)(=O)NCCc1ccccn1` (stereo not shown) [Example 407, 5-{[4-(1-hydroxy-1-phenylethyl)phenyl]sulfonyl}-2-methyl-N-(2-pyridin-2-ylethyl)benzenesulfonamide], the fold induction at 15 µM is 1.2 under setting [1] and 0.9 under setting [2].
For `Cc1ccc(S(=O)(=O)c2ccc(C(C)(O)Cc3ccccc3)cc2)cc1S(=O)(=O)NCCc1ccccn1` (stereo not shown) [Example 408, 5-{[4-(1-hydroxy-1-methyl-2-phenylethyl)phenyl]sulfonyl}-2-methyl-N-(2-pyridin-2-ylethyl)benzenesulfonamide], the fold induction at 15 µM runs as follows: under setting [1], 1.2; under setting [2], 1.
For `Cc1ccc(S(=O)(=O)c2cccc(C#N)c2)cc1S(=O)(=O)NCCc1ccccn1` [Example 409, 5-[(3-cyanophenyl)sulfonyl]-2-methyl-N-(2-pyridin-2-ylethyl)benzenesulfonamide], in that order: 2.2 and 1.3.
With `Cc1ccc(S(=O)(=O)c2cccc3ccccc23)cc1S(=O)(=O)NCCc1ccccn1` [Example 410, 2-methyl-5-(1-naphthylsulfonyl)-N-(2-pyridin-2-ylethyl)benzenesulfonamide], the fold induction at 15 µM is 2.7 under setting [1] and 1.3 under setting [2].
In the same order, the values of `Cc1ccc(S(=O)(=O)c2ccccc2)cc1S(=O)(=O)NC1CC(C)(C)NC(C)(C)C1` [Example 411, 2-methyl-5-(phenylsulfonyl)-N-(2,2,6,6-tetramethylpiperidin-4-yl)benzenesulfonamide] are 1.6 and 1.
In the same order, the values of `Cc1ccc(S(=O)(=O)c2ccccc2)cc1S(=O)(=O)NC1CCN(Cc2ccccc2)C1` (stereo not shown) [Example 414, N-(1-benzylpyrrolidin-3-yl)-2-methyl-5-(phenylsulfonyl)benzenesulfonamide] are 2 and 1.3.
In the same order, the values of `Cc1ccc(S(=O)(=O)c2ccccc2)cc1S(=O)(=O)NC1CCc2ccccc21` (stereo not shown) [Example 415, N-(2,3-dihydro-1H-inden-1-yl)-2-methyl-5-(phenylsulfonyl)benzenesulfonamide] are 1.5 and 1.2.
Turning to `Cc1ccc(S(=O)(=O)c2cccc(O)c2)cc1S(=O)(=O)NCCc1ccccn1` [Example 416, 5-[(3-hydroxyphenyl)sulfonyl]-2-methyl-N-(2-pyridin-2-ylethyl)benzenesulfonamide], the fold induction at 15 µM under setting [1] worked out at 1.9 and the fold induction at 15 µM under setting [2] worked out at 0.9.
Take `Cc1ccc(S(=O)(=O)c2cc(F)cc(F)c2)cc1S(=O)(=O)NCCc1ccccn1` [Example 417, 5-[(3,5-difluorophenyl)sulfonyl]-2-methyl-N-(2-pyridin-2-ylethyl)benzenesulfonamide]: the fold induction at 15 µM amounted to 1.8 under setting [1] and 1 under setting [2].
Turning to `CC(=O)c1cccc(S(=O)(=O)c2ccc(C)c(S(=O)(=O)NCCc3ccccn3)c2)c1` [Example 419, 5-[(3-acetylphenyl)sulfonyl]-2-methyl-N-(2-pyridin-2-ylethyl)benzenesulfonamide], the fold induction at 15 µM is, setting by setting: under setting [1], 2.5; under setting [2], 1.3.
As for `Cc1ccc(S(=O)(=O)c2ccccc2)cc1S(=O)(=O)NC1CC1` [Example 424, N-cyclopropyl-2-methyl-5-(phenylsulfonyl)benzenesulfonamide], the fold induction at 15 µM is, setting by setting: under setting [1], 2.1; under setting [2], 1.2.
For `Cc1ccc(S(=O)(=O)c2cccnc2)cc1S(=O)(=O)NCCc1ccccn1` [Example 426, 2-methyl-N-(2-pyridin-2-ylethyl)-5-(pyridin-3-ylsulfonyl)benzenesulfonamide], in that order: 1.3 and 0.8.
Take `Cc1ccc(S(=O)(=O)c2ccc(C#N)cc2)cc1S(=O)(=O)NCCc1ccccn1` [Example 428, 5-[(4-cyanophenyl)sulfonyl]-2-methyl-N-(2-pyridin-2-ylethyl)benzenesulfonamide]: the fold induction at 15 µM worked out at 1.3 under setting [1] and 0.8 under setting [2].
As to `CCS(=O)(=O)c1cccc(S(=O)(=O)c2ccc(C)c(S(=O)(=O)NCCc3ccccn3)c2)c1` [Example 429, 5-{[3-(ethylsulfonyl)phenyl]sulfonyl}-2-methyl-N-(2-pyridin-2-ylethyl)benzenesulfonamide], the fold induction at 15 µM was 0.9 under setting [1] and 0.8 under setting [2].
In the same order, the values of `Cc1ccc(S(=O)(=O)c2ccccc2C)cc1S(=O)(=O)NCCc1ccccn1` [Example 430, 2-methyl-5-[(2-methylphenyl)sulfonyl]-N-(2-pyridin-2-ylethyl)benzenesulfonamide] are 1.7 and 0.8.
